# Data as given in patent US9329192B2, “Polymer-coupled peptidases” (SENOVA GESELLSCHAFT FUR BIOWISSENSCHAFT UND TECHNIK MBH, priority 2010, dated 2016).
# System: heparin in combination with antithrombin of plasma
# Assay: Influence of heparin in plasma on amidolytic activity, chromogenic thrombin assay
# Assay type: biochemical
# Settings: increasing concentrations of heparin in citrated plasma, substrate H-D-Chg-Ala-Arg-pNA
# Experimental: The influence of heparin (Sigma, H-3393) on the amidolytic activity of PEG 5 kD-thrombin conjugate in plasma was compared with its influence on the amidolytic activity of unmodified thrombin using the chromogenic assay for quantitative determination of direct thrombin inhibitors (Example 5): 15 μl of a plasma sample (citrated plasma) were added to 50 μl chromogenic substrate (H-D-Chg-Ala-Arg-pNA, JenAffin GmbH, 3 mM in 0.05M Tris/HCl, 0.1M NaCl, pH 8.0 at 37° C.). Chromogenic reaction was started by addition of 100 μl PEG 5 kD-thrombin conjugate or thrombin, respectively. Increase in optical density (release of p-nitroaniline by cleavage of the chromogenic substrate) was recorded at 405 nm using the measurement device TC4+ (TECO GmbH).
row,Substance,influence of heparin on amidolytic activity
1,"PEG 5 kD-thrombin conjugate: bovine factor IIa (thrombin) coupled with methoxy polyethylene glycol (PEG)-5,000 p-nitrophenyl carbonate",does not influence amidolytic activity
2,"thrombin: bovine factor IIa (thrombin, EC 3.4.21.5, Kordia), unmodified",inhibit amidolytic activity
